The record followed here is US20240352466A1, “APTAMER-siRNA FUSIONS” (APTERNA LIMITED, priority 2020, published 2024).

In the oligonucleotide strings, read from the 5' end, every base follows the letter of its sugar. An asterisk marks phosphorothioate; unmarked linkages are phosphodiester. Other units and linkages are bracketed, terminal groups are in braces. A string of capitals states the bases alone. m = 2'-O-methyl; f = 2'-fluoro

Data set [1] has as its system pancreatic cancer with liver metastasis. As to the kind of experiment: Combination of TfR-siCEBPb with PD-1 inhibitor pembrolizumab in mouse model of pancreatic cancer with liver metastasis. Type of data set: in vivo. The text has this: The combinatorial anti-tumour effects of TfR-siCEBPb and PD-1 inhibitor pembrolizumab were investigated in the mouse model of pancreatic cancer with liver metastasis. The TfR-siCEBPb (ESC) and TfR-siFLUC sequences from Example 5 were used in this study.
The treatment groups were as follows:
Fourteen days prior to the first dose, mice underwent tumour challenge. The day prior to, and 21 days following the first dose, mice underwent bioluminescence tumour imaging (BTL).

The subject of the next data set is PANC-Luc cells. The experiment in a line: TfR-siCEBPb in mouse model of pancreatic cancer with liver metastasis. Type of data set: in vivo. Particulars: NOD/SCID mice, 15 mg/kg subcutaneous; for increase in photon count (BTL) relative to PBS and TfR-Fluc controls: after 3 weeks. As for the experimental part: The anti-tumour effects of TfR-siCEBPb was investigated in a mouse model of pancreatic cancer with liver metastasis
Treatment group 1 was administered PBS as a negative control. Treatment group 2 was a TfR-siFLUC construct (SEQ ID NO:32, conjugated to SEQ ID NO:1), as described previously. Treatment groups 3 and 4 was administered ESC modified siCEBPb sequences from Example 4 linked to TfR aptamer SEQ ID NO: 40, an ESC-modified version of the TfR aptamer laid out in SEQ ID NO:1, via a disulphide bridge as described previously. Group 3 is treated with a ribonucleic acid comprising the human-mouse cross reactive siCEBPb described previously, whilst Group 4 is treated with a ribonucleic acid comprising a mouse siCEBPb. These ribonucleic acids correspond to TFR-SS-siCEBPb seq 1 (SEQ ID NO: 41+50) and TfR-SS-siCEBPb seq 2 (SEQ ID NO:34 and 47) respectively.
Each group consisted of five 6-week-old NOD/SCID mice. Three additional mice were included for baseline.
Fourteen days prior to the first dose, mice underwent tumour challenge by performing intrahepatic tumor implantation by injecting […] of a monocellular suspension (in PBS) containing 1×10^6 PANC-Luc cells into a region in the middle lobe of the livers of 6-week-old female NOD/SCID. The day prior to the first dose, mice underwent bioluminescence tumour imaging (BTL) and were weighed to set the week 0 baseline.
Doses were administered as a 100 μL injection on injection days as outlined in Table 2.
At day 21 (week 3), BTL and body weight were recorded, and blood samples were taken, along with pathological sections of pancreas, tumour and liver for study and cryopreservation. The schema of the experiments is shown as FIG. 6.

A further data set relates to CEBPA. As to the kind of experiment: qRT-PCR of CEBPA gene expression in PANC-1, Sup-B15 and CCFR-CEM cell lines. It is filed as cell-based, human. The following applies: PANC-1, Sup-B15 and CCFR-CEM cells; 400 nM and 800 nM; normalized to GAPDH. As for the experimental part:
(§1) In order to evaluate the effects of TfR aptamer-small RNAs, experiments were performed in PANC-1, Sup-B15 and CCFR-CEM cell lines.
(§2) The TfR-SS-siCEBPB construct as described in Example 1 was selected for these experiments. A TfR aptamer (SEQ ID NO:1) fused via a disulphide bridge (SS) to siRNA for MALATI (TfR-MALATI siR) was generated as a negative control for siCEBPB activity. The siCEBPB (SEQ ID NO:9) without a TfR aptamer delivery system was also included for comparative purposes.
(§3) Cells were seeded in plates on Day 0, and the first transfection of TfR aptamer-small RNAs was performed on day 1. The second transfection of TfR aptamer-small RNAs was performed on day 2. Sampling was performed on day 3. Total RNA extraction was performed on samples prior to qRT-PCR quantification of GAPDH, CEBPA, CEBPB, and p21 gene expression. Expression was normalized to GAPDH.
(§4) Transfections were performed at 400 nM and 800 nM concentrations.

In a further data set the test system is p21. The experiment in a line: qRT-PCR of p21 gene expression in PANC-1, Sup-B15 and CCFR-CEM cell lines. It is filed as cell-based, human. The following applies: PANC-1, Sup-B15 and CCFR-CEM cells; 400 nM and 800 nM; normalized to GAPDH. As for the experimental part:
as §1, §2, §3, §4

The next data set deals with CEBPB. The experiment in a line: qRT-PCR of CEBPB gene expression in PANC-1, Sup-B15 and CCFR-CEM cell lines. Type of data set: cell-based, human. The following applies: PANC-1, Sup-B15 and CCFR-CEM cells; 400 nM and 800 nM; normalized to GAPDH. As for the experimental part: as §1, §2, §3, §4
(In general: In qPCR the cycle at which signal appears reflects the starting amount.)

Data set [2] concerns CEBPB mRNA. The experiment in a line: CEBPB mRNA transcripts (qPCR) in BNL-ME mouse cells transfected with naked and ESC siRNAs. Type of data set: cell-based. Particulars: 1, 5 and 10 nM + L3K, lysed after 48 hrs, vs untreated cells. As for the experimental part:
The activity of naked and ESC siRNAs was investigated in mouse BNL hepatocyte cells.
BNL-ME mouse cells were seeded at a density of approximately 20,000 cells per well. The following siRNAs were tested: (m) siCEBPB (Ambion) (SEQ ID NOs: 11, 51 and 12, 52), (m) siCEBPB (Ambs63860) (ESC) (SEQ ID NOs: 17, 18), (h/m) siCEBPB (SEQ ID NOs: 7 and 8), (h/m) siCEBPB ESC (SEQ ID NOs: 15 and 16), (h) siCEBPB (AP6143-6145) (SEQ ID NOs: 9 and 10), (r) siCEBPB (Hao) (SEQ ID NOs: 13 and 14). Test siRNAs were transfected at concentrations of 1, 5 and 10 nM in the presence of Lipofectamine™ 3000 (L3K). Control treatments (untreated, mock L3K treatment, and siFLUC at 1, 5 and 10 nM) were also performed. The media was changed 24 hours following transfection, and cells lysed after 48 hrs. CEBPB mRNA transcript were quantified through qPCR.

Data set [3] relates to CEBPB mRNA. As to the kind of experiment: CEBPB mRNA expression in primary mouse hepatocytes exposed to TfR-SS-(h/m) siCEBPb. Type of data set: cell-based. The text has this:
The human siCEBPbeta sequence was aligned with chromosome 3 of the mouse genome (Accession NC_0344592.1), in which the CEBPbeta gene is located, using Basic Local Alignment Search Tool (BLAST, https://blast.ncbi.nlm.nih.gov). […] To make a human/mouse cross-reactive siRNA, this sequence was substituted in the sense (G to A) and antisense (C to U) strands. The sense and antisense strands of this human/mouse crossreactive (h/m) siCEBPb correspond to SEQ ID NOs: 15 and 16 respectively. TfR-SS-MALATI siRNA was included as an siRNA effector control.
Primary mouse hepatocytes were exposed to TfR-SS-MALATI (100 nM, 500 nM and 1000 nM) or TfR-SS-(h/m) siCEBPb (100 nM, 500 nM and 1000 nM), or were untreated, and the effects on CEBPB mRNA expression determined as outlined previously.

The next data set relates to CEBPA mRNA. As to the kind of experiment: CEBPA mRNA levels in Panc1 cells after TfR aptamer-saCEBPA constructs, active (L2K) and passive delivery. Type of data set: cell-based, human. Particulars: for CEBPA mRNA levels: passive delivery. The text has this: In order to test whether cleavable […] bridge (SS) linkers improved TfR aptamer delivery of small RNA, a series of constructs were made by fusing the 22nt TfR binding aptamer (SEQ ID NO:1) to: i. a CEBPalpha small activating RNA (saCEBPa, SEQ ID NO:24) ii. CEBPbeta small interfering RNA (siCEBPb, SEQ ID NO:9), or iii. siTTR (SEQ ID NO:28).
For the saCEBPa and […] constructs, variants were produced where the aptamer and small RNAs were linked through a disulphide linker (SS).
In order to compare the effects of the SS linker on active and passive delivery, constructs were applied to cells in the presence and absence of transfection agent Lipofectamine™ 2000 (L2K, ThermoFisher Scientific).
The effects of the constructs on CEBPA and B mRNA were measured in Panc1 (human pancreatic cancer cell line) cells. Cells were seeded at a density of approximately 50,000 per well in a 24 well plate, in antibiotic free media with no trypsin (Accutase®). Constructs were applied to cells at 10, 500 or 1000 nM concentration, and mRNA levels measured after incubation for 72 hrs.

Turning to “TfR-SS-(h/m) siCEBPb ESC seq 2: ESC modified human-mouse cross reactive siCEBPb linked to TfR aptamer SEQ ID NO:40 via a disulphide bridge (SEQ ID NO: 34 and 47) (chain 1 UUUAUUCACAUUUUUGAAUUGA; chain 2 CUGAGUAAUCGCUUAAAGAUU; chain 1: 2'-fluoro at CU, RNA at AG, backbone not given here; chain 2: chemistry not given here; further chemistry not fully specified)”, the “effect on animal weight” value in data set [1] (in combination with pembrolizumab) is given as “no effect on animal weight”. Further, in the data set with PANC-Luc cells, the “body weight at 3 weeks relative to week 0” value is on record as “body weight gain”; the “increase in photon count (BTL) relative to PBS and TfR-Fluc controls” value was “lower”. Also, in the data set with PANC-Luc cells (week 3), the “effects on IVIS, body weight, tumour volume and weight, seq 2 compared with seq-1” value is listed as “more pronounced”; the “tumour burden relative to controls” value is “ability to reduce tumour burden”; the tumour volume entry was “statistically significant lower”; the tumour weight entry was “statistically significant lower”.

“siCEBPbeta: human CEBPB siRNA (SEQ ID NOs: 9 and 10) without a TfR aptamer delivery system (chain 1 CUGAGUAAUCGCUUAAAGAUU; chain 2 UCUUUAAGCGAUUACUCAGUU; listed as RNA, chemistry not given here)”: the C/EBPA gene expression entry in the data set on CEBPA is “no statistically significant change”. Moreover, the p21 gene expression result in the data set on p21 is given as “no statistically significant change”. Moreover, the CEBPbeta gene expression entry in the data set on CEBPB is listed as “no statistically significant change”.

On to “pembrolizumab: PD-1 inhibitor pembrolizumab [reference compound]”, for which the “tumour volume compared to PBS-treated controls” value in data set [1] (week 3, pembrolizumab 0.25 mg/kg, TfR constructs 10 mg/kg) was “smaller tumour volumes”.

For “TfR-SS-(m) siCEBPb ESC seq 1: ESC modified mouse siCEBPb linked to TfR aptamer SEQ ID NO:40 via a disulphide bridge (SEQ ID NO: 41+50) (chain 1 UUUAUUCACAUUUUUGAAUUGA; chain 2 GCACCCUGCGGAACUUGUUUU; ESC modified; disulphide linker; modified_base 1 OTHER; 2-Prime-fluoro uracil; modified_base 2 OTHER; modified_base 3 OTHER; modified_base 5 OTHER; modified_base 6 OTHER; modified_base 7 OTHER; 2-Prime-fluoro cytosine; modified_base 9 OTHER; modified_base 11 OTHER; modified_base 12 OTHER; 2-P; 2-Prime-fluoro guanine; 2-Prime-O-methyl cytosine; 2-Prime-fluoro adenine; modified_base 4 OTHER; mo)”, the “increase in photon count (BTL) relative to PBS and TfR-Fluc controls” value with PANC-Luc cells is recorded as “lower”. Further, in the data set with PANC-Luc cells (week 3), the “tumour burden relative to controls” value was “ability to reduce tumour burden”, the tumour volume result is “Slightly lower” and the tumour weight entry was “Slightly lower”.

Consider “(h/m) siCEBPB: human/mouse cross reactive naked CEBPB siRNA (AP6143), SEQ ID NOs: 7 and 8 (chain 1 CUGAGUAAUCACUUAAAGAUU; chain 2 UCUUUAAGUGAUUACUCAGUU; unmodified RNA)”, for which the “CEBPB mRNA expression” value in the data set with CEBPB mRNA [2] is on record as “below half that of the untreated cells”.

For the molecule “TfR-SS-(h/m) siCEBPb: TfR aptamer linked via SS to human/mouse crossreactive siCEBPb (SEQ ID NOs: 15 and 16) (chain 1 fCmUfGmAfGmUfAfAfUmCfAmCfUmUfAmAfAmGfA*mU*mU; chain 2 mU*fCmU*fUmUfAmAfGmUfGmAmUmUfAmCfUmCfAmG*mU*mU; TfR aptamer attached via disulphide linker, attachment site not given here)”, the “relative CEBPB mRNA expression” value with CEBPB mRNA [3] (100 nM) is “reduced slightly”; in the data set on CEBPB mRNA [3] (500 nM), “strongest effect”; with CEBPB mRNA [3] (1000 nM) it was “more pronounced”.

B1: TfR-SS-saCEBPA: TfR aptamer SEQ ID NO:1 linked through a disulphide linker (SS) to saCEBPa (SEQ ID NO:38+49, 39) (nucleic acid)
chain 1: UUUAUUCACAUUUUUGAAUUGA
chain 2: UUUAUUCACAUUUUUGAAUUGA
chain 3: GACCAGUGACAAUGACCGCUU
chain 4: GCGGUCAUUGUCACUGGUCUU
modifications: TfR aptamer attached via disulphide linker, further chemistry not given here
In the case of B1, in the data set with CEBPA mRNA (10 nM + L2K (active delivery), 72 hrs, vs untreated samples), the “relative expression of CEBPA mRNA” value is given as “within 1 standard deviation of untreated samples”. In addition, the “CEBPA mRNA levels” value in the data set with CEBPA mRNA (500 nM and 1000 nM, 72 hrs) is recorded as “lower”; in the data set on CEBPA mRNA (1000 nM, vs control), “within one standard deviation of the control”.
